Measurements taken from the NIST ThermoML archive (doi:10.1016/j.jct.2012.06.030).

Assay: excess molar enthalpy (molar enthalpy of mixing); xn = mol fraction of the nth substance listed
Details: 101 kPa, Liquid, isothermal titration calorimeter

CCCCCC[n+]1ccc2ccccc2c1.N#C[S-] [2-hexylisoquinolinium thiocyanate] + O
Details	excess molar enthalpy [kcal/mol]
298.15 K, x1 = 0.0916	0.0327
298.15 K, x1 = 0.0938	0.0335
298.15 K, x1 = 0.0961	0.0344
298.15 K, x1 = 0.0985	0.0351
298.15 K, x1 = 0.101	0.0361
298.15 K, x1 = 0.1036	0.0368
298.15 K, x1 = 0.1064	0.0378
298.15 K, x1 = 0.1093	0.0387
298.15 K, x1 = 0.1125	0.0399
298.15 K, x1 = 0.1157	0.0409
298.15 K, x1 = 0.1192	0.0421
298.15 K, x1 = 0.1229	0.0435
298.15 K, x1 = 0.1264	0.0445
298.15 K, x1 = 0.1301	0.0459
298.15 K, x1 = 0.134	0.0471
298.15 K, x1 = 0.1381	0.0485
298.15 K, x1 = 0.1426	0.0502
298.15 K, x1 = 0.1473	0.0516
298.15 K, x1 = 0.1523	0.0533
298.15 K, x1 = 0.1577	0.0552
298.15 K, x1 = 0.1635	0.0571
298.15 K, x1 = 0.1697	0.0593
298.15 K, x1 = 0.1764	0.0617
298.15 K, x1 = 0.1836	0.0641
298.15 K, x1 = 0.1915	0.0667
298.15 K, x1 = 0.2001	0.0696
298.15 K, x1 = 0.2095	0.0727
298.15 K, x1 = 0.2198	0.076
298.15 K, x1 = 0.2312	0.0798
298.15 K, x1 = 0.2439	0.0834
298.15 K, x1 = 0.258	0.0846
298.15 K, x1 = 0.2738	0.0832
298.15 K, x1 = 0.2917	0.077
298.15 K, x1 = 0.3095	0.0691
298.15 K, x1 = 0.3296	0.0581
298.15 K, x1 = 0.3525	0.0449
298.15 K, x1 = 0.3749	0.0325
298.15 K, x1 = 0.4002	0.0189
298.15 K, x1 = 0.424	0.00672
298.15 K, x1 = 0.4509	-0.00614
298.15 K, x1 = 0.4749	-0.0166
298.15 K, x1 = 0.5016	-0.027
298.15 K, x1 = 0.5315	-0.037
298.15 K, x1 = 0.5562	-0.044
298.15 K, x1 = 0.5833	-0.05
298.15 K, x1 = 0.6133	-0.055
298.15 K, x1 = 0.6464	-0.0586
298.15 K, x1 = 0.6834	-0.0602
298.15 K, x1 = 0.7102	-0.0598
298.15 K, x1 = 0.7393	-0.0583
298.15 K, x1 = 0.7708	-0.0552
298.15 K, x1 = 0.8051	-0.0502
298.15 K, x1 = 0.8229	-0.0471
298.15 K, x1 = 0.8415	-0.0435
298.15 K, x1 = 0.861	-0.039
298.15 K, x1 = 0.8815	-0.0342
298.15 K, x1 = 0.9029	-0.0287
298.15 K, x1 = 0.9253	-0.0225
298.15 K, x1 = 0.949	-0.0156
298.15 K, x1 = 0.9738	-0.00798
303.15 K, x1 = 0.0899	0.0318
303.15 K, x1 = 0.092	0.0325
303.15 K, x1 = 0.0942	0.0332
303.15 K, x1 = 0.0965	0.0339
303.15 K, x1 = 0.099	0.0347
303.15 K, x1 = 0.1016	0.0356
303.15 K, x1 = 0.1043	0.0366
303.15 K, x1 = 0.1071	0.0373
303.15 K, x1 = 0.1102	0.0385
303.15 K, x1 = 0.1134	0.0394
303.15 K, x1 = 0.1168	0.0406
303.15 K, x1 = 0.1204	0.0418
303.15 K, x1 = 0.1238	0.0428
303.15 K, x1 = 0.1274	0.044
303.15 K, x1 = 0.1312	0.0452
303.15 K, x1 = 0.1352	0.0466
303.15 K, x1 = 0.1395	0.048
303.15 K, x1 = 0.1441	0.0495
303.15 K, x1 = 0.1489	0.0511
303.15 K, x1 = 0.1542	0.0528
303.15 K, x1 = 0.1598	0.0547
303.15 K, x1 = 0.1658	0.0566
303.15 K, x1 = 0.1723	0.0588
303.15 K, x1 = 0.1793	0.0612
303.15 K, x1 = 0.187	0.0636
303.15 K, x1 = 0.1953	0.0664
303.15 K, x1 = 0.2044	0.0693
303.15 K, x1 = 0.2144	0.0727
303.15 K, x1 = 0.2254	0.0748
303.15 K, x1 = 0.2375	0.0779
303.15 K, x1 = 0.2511	0.0803
303.15 K, x1 = 0.2663	0.0805
303.15 K, x1 = 0.2835	0.0772
303.15 K, x1 = 0.3031	0.071
303.15 K, x1 = 0.3255	0.0609
303.15 K, x1 = 0.3483	0.048
303.15 K, x1 = 0.3744	0.032
303.15 K, x1 = 0.4001	0.0169
303.15 K, x1 = 0.4295	0.000844
303.15 K, x1 = 0.4576	-0.0129
303.15 K, x1 = 0.4895	-0.0268
303.15 K, x1 = 0.5184	-0.0375
303.15 K, x1 = 0.5509	-0.0473
303.15 K, x1 = 0.578	-0.054
303.15 K, x1 = 0.6079	-0.0595
303.15 K, x1 = 0.641	-0.0638
303.15 K, x1 = 0.6779	-0.066
303.15 K, x1 = 0.7193	-0.0655
303.15 K, x1 = 0.7496	-0.0636
303.15 K, x1 = 0.7826	-0.0598
303.15 K, x1 = 0.8185	-0.054
303.15 K, x1 = 0.858	-0.0464
303.15 K, x1 = 0.872	-0.0421
303.15 K, x1 = 0.8864	-0.037
303.15 K, x1 = 0.9014	-0.0318
303.15 K, x1 = 0.9168	-0.027
303.15 K, x1 = 0.9328	-0.0221
303.15 K, x1 = 0.9494	-0.0165
303.15 K, x1 = 0.9666	-0.0104
303.15 K, x1 = 0.9844	-0.00416
308.15 K, x1 = 0.0931	0.0332
308.15 K, x1 = 0.0953	0.0339
308.15 K, x1 = 0.0976	0.0347
308.15 K, x1 = 0.1	0.0355
308.15 K, x1 = 0.1025	0.0363
308.15 K, x1 = 0.1052	0.0372
308.15 K, x1 = 0.1081	0.0381
308.15 K, x1 = 0.111	0.0391
308.15 K, x1 = 0.1142	0.0401
308.15 K, x1 = 0.1175	0.0412
308.15 K, x1 = 0.1211	0.0423
308.15 K, x1 = 0.1248	0.0436
308.15 K, x1 = 0.1284	0.0447
308.15 K, x1 = 0.1321	0.0459
308.15 K, x1 = 0.1361	0.0473
308.15 K, x1 = 0.1403	0.0486
308.15 K, x1 = 0.1448	0.0501
308.15 K, x1 = 0.1496	0.0516
308.15 K, x1 = 0.1547	0.0533
308.15 K, x1 = 0.1602	0.0551
308.15 K, x1 = 0.166	0.057
308.15 K, x1 = 0.1723	0.0589
308.15 K, x1 = 0.1792	0.0612
308.15 K, x1 = 0.1865	0.0636
308.15 K, x1 = 0.1945	0.0661
308.15 K, x1 = 0.2033	0.069
308.15 K, x1 = 0.2128	0.0718
308.15 K, x1 = 0.2233	0.0744
308.15 K, x1 = 0.2349	0.076
308.15 K, x1 = 0.2478	0.0778
308.15 K, x1 = 0.2621	0.0795
308.15 K, x1 = 0.2782	0.0785
308.15 K, x1 = 0.2941	0.0754
308.15 K, x1 = 0.3119	0.0706
308.15 K, x1 = 0.332	0.063
308.15 K, x1 = 0.3549	0.0511
308.15 K, x1 = 0.3772	0.0372
308.15 K, x1 = 0.4025	0.0214
308.15 K, x1 = 0.4262	0.00743
308.15 K, x1 = 0.4529	-0.00703
308.15 K, x1 = 0.4767	-0.0189
308.15 K, x1 = 0.5032	-0.0306
308.15 K, x1 = 0.5328	-0.0421
308.15 K, x1 = 0.5573	-0.05
308.15 K, x1 = 0.5841	-0.0571
308.15 K, x1 = 0.6137	-0.0629
308.15 K, x1 = 0.6464	-0.0672
308.15 K, x1 = 0.6827	-0.0693
308.15 K, x1 = 0.7091	-0.0693
308.15 K, x1 = 0.7376	-0.0674
308.15 K, x1 = 0.7685	-0.0641
308.15 K, x1 = 0.802	-0.059
308.15 K, x1 = 0.8213	-0.0557
308.15 K, x1 = 0.8416	-0.0519
308.15 K, x1 = 0.8628	-0.0471
308.15 K, x1 = 0.883	-0.0418
308.15 K, x1 = 0.9042	-0.0356
308.15 K, x1 = 0.9264	-0.0289
308.15 K, x1 = 0.9497	-0.0213
308.15 K, x1 = 0.9742	-0.0116
